Assay: Study on stability under influencing factors (high temperature, high humidity, light) of the crystal forms
Format: physicochemical
Description: In order to evaluate the solid stability of the crystal forms of the present application, the stability of each of the crystal form I, the crystal form A, the crystal form D, the crystal form E and the crystal form F under influencing factors (high temperature, high humidity and light) was investigated. Each of the crystal forms was stored under the high temperature condition (60±2° C., open (weighing bottle)), and the high humidity condition (room temperature, 92.5%±5% RH, open (weighing bottle) and packaged) for 5 days, 10 days and 30 days, and under the ICH light condition (5500 Lux, 0.9 w/m^2, closed (weighing bottle) and packaged) for 5 days and 10 days. The inner packaging material of the packaged sample was a medical low-density polyethylene bag, and the outer packaging material is a medical polyester/aluminum/polyethylene composite bag. The samples after the storage were characterized by properties, purity (HPLC), crystal form (XRD) and water content to detect the changes in the crystal form and purity. The results are shown in Tables 8-12 (“^#” indicates the ICH condition).

[1] = 92.5% RH, room temperature, open, 10 days
[2] = 92.5% RH, room temperature, open, 30 days
[3] = Light (ICH, 5500 Lux), closed, 10 days

Structure (SMILES): Cn1cc(-c2nc(N=S(C)(C)=O)ccc2Oc2ccc(F)cc2F)c2cc[nH]c2c1=O [crystal form I]
- Impurity content (60° C., open, 5 days): 1.23%
- Crystal form change (60° C., open, 10 days): Unchanged
- Impurity content (60° C., open, 10 days): 1.21%
- Water content (60° C., open, 10 days): 0.19%
- Crystal form change (60° C., open, 30 days): Unchanged
- Impurity content (60° C., open, 30 days): 1.31%
- Water content (60° C., open, 30 days): 0.15%
- Crystal form change (92.5% RH, packaged, 30 days): Unchanged
- Impurity content (92.5% RH, packaged, 30 days): 1.32%
- Water content (92.5% RH, packaged, 30 days): 0.23%
- Impurity content (92.5% RH, room temperature, open, 5 days): 1.23%
- Crystal form change [1]: Unchanged
- Impurity content [1]: 1.23%
- Water content [1]: 0.36%
- Crystal form change [2]: Unchanged
- Impurity content [2]: 1.30%
- Water content [2]: 0.31%
- Crystal form change (Light (ICH), packaged, 10 days): Unchanged
- Impurity content (Light (ICH), packaged, 10 days): 1.21%
- Water content (Light (ICH), packaged, 10 days): 0.30%
- Impurity content (Light (ICH, 5500 Lux), closed, 5 days): 1.18%
- Crystal form change [3]: Unchanged
- Impurity content [3]: 1.21%
- Water content [3]: 0.34%
- Impurity content (starting crystal form): 1.20%
- Water content (starting crystal form): 0.39%
